In publication PMC8063935, “Amphipathic Peptide Antibiotics with Potent Activity against Multidrug-Resistant Pathogens” (Pharmaceutics, 2021):
Converted amounts (≈) assume the structure as drawn. Where a SMILES comes first, the peptide text is derived from it.

How the values were obtained:
MRSA T144 [1] = test: microbe, parasite or virus in culture; assay type: cell-based, Staphylococcus aureus
Protocol: (§1) The MICs of all drugs were determined by micro-broth dilution method according to CLSI 2018 guidelines. The bacterial suspension used in the experiment was appropriate 1.5 × 10^6 colony-forming units (CFUs) per mL and mixed with the drug solution in a sterilized 96-well microtiter plate (Corning, New York, USA), then incubated at 37 °C for 16–18 h. MIC value was defined as the minimum drug concentration without visible bacteria. Meanwhile, the density of the bacteria at 600 nm was measured, and the corresponding IC50 was calculated using log (inhibitor) vs. response variable slope (four parameters) in Graphpad Prism version 8.3.0 software (San Diego, CA, USA). To assess the role of ROS production in the antibacterial activity of WW307, increasing concentrations of N-acetylcysteine (NAC) from 0 to 5 mM were added in culture medium, followed by MICs test.

S. aureus G16 (RIF^R) = test: microbe, parasite or virus in culture; assay type: cell-based, Staphylococcus aureus; conditions: S. aureus G16 (RIF^R)
Protocol: as §1

E. coli 1F28 (tet(X4)) = test: microbe, parasite or virus in culture; assay type: cell-based, Escherichia coli
Protocol: as §1

[2] = system: E. coli B2 (mcr-1 + blaNDM-5); test: microbe, parasite or virus in culture; assay type: cell-based, Escherichia coli; conditions: E. coli B2 (mcr-1 + blaNDM-5)
Protocol: as §1

E. coli G92 (mcr-1) = test: microbe, parasite or virus in culture; assay type: cell-based, Escherichia coli; conditions: E. coli G92 (mcr-1)
Protocol: as §1

E. coli C3 (blaNDM-1) = test: MIC / IC50, micro-broth dilution; assay type: cell-based, Escherichia coli
Protocol: as §1

E. coli CP131 (mcr-3) = test: MIC / IC50, micro-broth dilution; assay type: cell-based, Escherichia coli; conditions: E. coli CP131 (mcr-3)
Protocol: as §1

E. coli G6 (blaNDM-5) = test: MIC / IC50, micro-broth dilution; assay type: cell-based, Escherichia coli
Protocol: as §1

[3] = system: A. baumannii C222 (tet(X6)); test: microbe, parasite or virus in culture; assay type: cell-based, Acinetobacter baumannii; conditions: A. baumannii C222 (tet(X6))
Protocol: as §1

[4] = system: P. cibarius HNCF44W (blaNDM-1 + tet(X6)); test: MIC / IC50, micro-broth dilution; assay type: cell-based
Protocol: as §1

MRSA T144 [5] = test: Thermal, pH, salts, serum and protease stability (residual MIC); assay type: cell-based, Staphylococcus aureus
Protocol: (§2) In order to evaluate the influence of ions and serum on the activity of AMPs, 10 mM Na^+, K^+, Mg^2+, 10% Dulbecco’s Modified Eagle Medium (DMEM) and fetal bovine serum (FBS) were added into Mueller-Hinton broth (MHB) culture medium for subsequent MIC tests.
(§3) Drugs were incubated at different temperatures (range from 40 to 121 °C) and pH (range from 2 to 12) for 1 h, then adjust back to original pH, following MIC test to evaluate their residual activity. To evaluate the protease stability, pepsin, trypsin, and papain were mixed with WW307 to achieve a final concentration of 1 mM, and then incubated at 37 °C for 1 h. After incubation, the remaining protease was precipitated using acetonitrile and removed by centrifugation at 3000× g, following for MIC test.

E. coli B2 [6] = test: as above; assay type: cell-based, Escherichia coli
Protocol: as §2, §3

Sheep RBCs = test: Hemolysis analysis; assay type: cell-based; conditions: 8% sheep red blood cell suspension, 37 °C, 1 h, released hemoglobin at 576 nm; PBS negative, ddH2O positive control
Protocol: The hemolytic activity on all peptides was evaluated based on previous report. Briefly, fresh Sheep RBCs were washed twice with phosphate buffer (PBS), and then 8% red blood cell suspension was prepared. The increasing concentrations of AMPs and melittin were mixed with 8% red blood cell suspension, respectively, and incubated at 37 °C for 1 h. The sterilized PBS and double-distilled water (ddH2O) were used as blank and positive control, respectively. Afterwards, the supernatant was centrifuged to measure the absorption of released hemoglobin at 576 nm by an Infinite M200 Microplate reader (Tecan, Männedorf, Switzerland). The corresponding hemolysis rate was calculated.

MRSA T144 [7] = test: Thermal, pH, salts, serum and protease stability (residual MIC); assay type: cell-based, Staphylococcus aureus; conditions: protease precipitated with acetonitrile, then MIC test
E. coli B2 [8] = test: as above; assay type: cell-based, Escherichia coli; conditions: protease precipitated with acetonitrile, then MIC test
[9] = OD600 of micro-broth dilution plates, four-parameter fit
[10] = micro-broth dilution, CLSI 2018, ~1.5 × 10^6 CFUs per mL, 37 °C, 16–18 h
[11] = 10% fetal bovine serum (FBS) added into MHB
[12] = WW307 incubated at 40 °C for 1 h before MIC test
[13] = WW307 incubated at 60 °C for 1 h before MIC test
[14] = WW307 incubated at 80 °C for 1 h before MIC test
[15] = WW307 incubated at 100 °C for 1 h before MIC test
[16] = WW307 incubated at 121 °C for 1 h before MIC test
[17] = WW307 incubated at pH 2 for 1 h, adjusted back to original pH, then MIC test
[18] = WW307 incubated at pH 4 for 1 h, adjusted back to original pH, then MIC test
[19] = WW307 incubated at pH 6 for 1 h, adjusted back to original pH, then MIC test
[20] = WW307 incubated at pH 8 for 1 h, adjusted back to original pH, then MIC test
[21] = WW307 incubated at pH 10 for 1 h, adjusted back to original pH, then MIC test
[22] = WW307 incubated at pH 12 for 1 h, adjusted back to original pH, then MIC test
[23] = WW307 incubated with trypsin (1 mg/mL) at 37 °C for 1 h

## CC(C)[C@H](NC(=O)[C@H](Cc1c[nH]c2ccccc12)NC(=O)[C@H](Cc1c[nH]c2ccccc12)NC(=O)[C@H](Cc1c[nH]c2ccccc12)NC(=O)[C@H](Cc1c[nH]c2ccccc12)NC(=O)[C@H](CCCNC(=N)N)NC(=O)[C@H](CCCNC(=N)N)NC(=O)[C@@H](N)CCCNC(=N)N)C(N)=O [WW307] (H-RRRWWWWV-NH2)
MRSA T144 [1]; [9]
  IC50: 1.03 µg/mL (≈ 0.775 µM)
MRSA T144 [1]; [10]
  MIC: 4 µg/mL (≈ 3.01 µM)
S. aureus G16 (RIF^R); [9]
  IC50: 0.52 µg/mL (≈ 0.391 µM)
S. aureus G16 (RIF^R); [10]
  MIC: 1 µg/mL (≈ 0.752 µM)
E. coli 1F28 (tet(X4)); [9]
  IC50: 2.13 µg/mL (≈ 1.6 µM)
E. coli 1F28 (tet(X4)); [10]
  MIC: 4 µg/mL (≈ 3.01 µM)
[2]; [9]
  IC50: 4.18 µg/mL
[2]; [10]
  MIC: 4 µg/mL
E. coli G92 (mcr-1); [9]
  IC50: 2.18 µg/mL (≈ 1.64 µM)
E. coli G92 (mcr-1); [10]
  MIC: 4 µg/mL (≈ 3.01 µM)
E. coli C3 (blaNDM-1); [9]
  IC50: 1.82 µg/mL (≈ 1.37 µM)
E. coli C3 (blaNDM-1); [10]
  MIC: 4 µg/mL (≈ 3.01 µM)
E. coli CP131 (mcr-3); [9]
  IC50: 2.07 µg/mL (≈ 1.56 µM)
E. coli CP131 (mcr-3); [10]
  MIC: 4 µg/mL (≈ 3.01 µM)
E. coli G6 (blaNDM-5); [9]
  IC50: 2.25 µg/mL (≈ 1.69 µM)
E. coli G6 (blaNDM-5); [10]
  MIC: 8 µg/mL (≈ 6.02 µM)
[3]; [9]
  IC50: 2.15 µg/mL (≈ 1.62 µM)
[3]; [10]
  MIC: 4 µg/mL (≈ 3.01 µM)
[4]; [9]
  IC50: 2.21 µg/mL (≈ 1.66 µM)
[4]; [10]
  MIC: 2 µg/mL (≈ 1.5 µM)
MRSA T144 [5]; 10 mM K^+ added into MHB
  MIC with K^+: 4 µg/mL
MRSA T144 [5]; 10 mM Mg^2+ added into MHB
  MIC with Mg^2+: 16 µg/mL
MRSA T144 [5]; 10 mM Na^+ added into MHB
  MIC with Na^+: 4 µg/mL
MRSA T144 [5]; 10% DMEM added into MHB
  MIC with DMEM (10%): 8 µg/mL
MRSA T144 [5]; [11]
  MIC with Serum (10%): 8 µg/mL
MRSA T144 [5]; [12]
  MIC after 40 °C: 4 µg/mL
MRSA T144 [5]; [13]
  MIC after 60 °C: 4 µg/mL
MRSA T144 [5]; [14]
  MIC after 80 °C: 4 µg/mL
MRSA T144 [5]; [15]
  MIC after 100 °C: 4 µg/mL
MRSA T144 [5]; [16]
  MIC after 121 °C: 4 µg/mL
MRSA T144 [5]; [17]
  MIC after pH 2: 4 μg/mL
MRSA T144 [5]; [18]
  MIC after pH 4: 4 μg/mL
MRSA T144 [5]; [19]
  MIC after pH 6: 4 μg/mL
MRSA T144 [5]; [20]
  MIC after pH 8: 4 μg/mL
MRSA T144 [5]; [21]
  MIC after pH 10: 4 μg/mL
MRSA T144 [5]; [22]
  MIC after pH 12: 4 μg/mL
MRSA T144 [5]; WW307 incubated with papain (1 mg/mL) at 37 °C for 1 h, protease precipitated with acetonitrile, then MIC test
  MIC after papain: >128 µg/mL
MRSA T144 [5]; untreated WW307
  MIC, Control: 4 µg/mL
E. coli B2 [6]; 10 mM K^+ added into MHB
  MIC with K^+: 4 µg/mL
E. coli B2 [6]; 10 mM Mg^2+ added into MHB
  MIC with Mg^2+: 16 µg/mL
E. coli B2 [6]; 10 mM Na^+ added into MHB
  MIC with Na^+: 4 µg/mL
E. coli B2 [6]; 10% DMEM added into MHB
  MIC with DMEM (10%): 8 µg/mL
E. coli B2 [6]; [11]
  MIC with Serum (10%): 8 µg/mL
E. coli B2 [6]; [12]
  MIC after 40 °C: 4 µg/mL
E. coli B2 [6]; [13]
  MIC after 60 °C: 4 µg/mL
E. coli B2 [6]; [14]
  MIC after 80 °C: 4 µg/mL
E. coli B2 [6]; [15]
  MIC after 100 °C: 4 µg/mL
E. coli B2 [6]; [16]
  MIC after 121 °C: 4 µg/mL
E. coli B2 [6]; [17]
  MIC after pH 2: 4 μg/mL
E. coli B2 [6]; [18]
  MIC after pH 4: 4 μg/mL
E. coli B2 [6]; [19]
  MIC after pH 6: 4 μg/mL
E. coli B2 [6]; [20]
  MIC after pH 8: 4 μg/mL
E. coli B2 [6]; [21]
  MIC after pH 10: 4 μg/mL
E. coli B2 [6]; [22]
  MIC after pH 12: 8 μg/mL
E. coli B2 [6]; WW307 incubated with pepsin (1 mg/mL) at 37 °C for 1 h, protease precipitated with acetonitrile, then MIC test
  MIC after pepsin: 4 µg/mL
E. coli B2 [6]; untreated WW307
  MIC, Control: 4 µg/mL
Sheep RBCs
  HL50 (peptide concentration that causes 50% hemolysis): > 128 µg/mL
MRSA T144 [7]; WW307 incubated with pepsin (1 mg/mL) at 37 °C for 1 h
  MIC after pepsin: 4 µg/mL
MRSA T144 [7]; [23]
  MIC after trypsin: >128 µg/mL
E. coli B2 [8]; WW307 incubated with papain (1 mg/mL) at 37 °C for 1 h
  MIC after papain: >128 µg/mL
E. coli B2 [8]; [23]
  MIC after trypsin: >128 µg/mL
